Measurements: ChEMBL document CHEMBL4190399, “Spiro[pyrrolidine-3,3'-oxindoles] as 5-HT7 receptor ligands” (Bioorg Med Chem Lett, 2018)

What was measured:
[1] = biological target: T1, 5-hydroxytryptamine receptor 1A (Homo sapiens, UniProt P08908); experiment: Displacement of [3H]-8-OH-DPAT from human 5-HT1A receptor expressed in HEK293 cell membranes after 1 hr by microbeta scintillation counting analysis
T1 sequence (P08908 whole entry): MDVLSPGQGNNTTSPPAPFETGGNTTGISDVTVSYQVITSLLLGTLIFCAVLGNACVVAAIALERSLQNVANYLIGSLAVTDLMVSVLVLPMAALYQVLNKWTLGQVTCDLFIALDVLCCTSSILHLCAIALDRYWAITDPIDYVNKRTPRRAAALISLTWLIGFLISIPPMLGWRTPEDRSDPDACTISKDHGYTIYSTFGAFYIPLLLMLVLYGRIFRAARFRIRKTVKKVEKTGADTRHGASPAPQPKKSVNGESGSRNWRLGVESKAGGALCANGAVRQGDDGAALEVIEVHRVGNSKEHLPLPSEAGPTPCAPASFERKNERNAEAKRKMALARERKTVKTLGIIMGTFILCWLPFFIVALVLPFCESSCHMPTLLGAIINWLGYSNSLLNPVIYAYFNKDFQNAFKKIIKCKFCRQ

[2] = biological target: 5-hydroxytryptamine receptor 2A (Homo sapiens, UniProt P28223); experiment: Displacement of [3H]-Ketanserin from human 5-HT2A receptor expressed in CHO-K1 cell membranes after 1.5 hrs by microbeta scintillation counting analysis
Homo sapiens [3] = species on record: Homo sapiens; experiment: Selectivity index, ratio of Ki for human 5-HT2A receptor expressed in CHO-K1 cell membranes to Ki for human 5-HT7b receptor expressed in HEK293 cell membranes; type: cell-based
[4] = biological target: 5-hydroxytryptamine receptor 6 (Homo sapiens, UniProt P50406); experiment: Displacement of [3H]-LSD from human 5-HT6 receptor expressed in HEK293 cell membranes after 1 hr at 37 degC by microbeta scintillation counting analysis
[5] = biological target: 5-hydroxytryptamine receptor 7 (Homo sapiens, UniProt P34969); experiment: Displacement of [3H]-5-CT from human 5-HT7b receptor expressed in HEK293 cell membranes after 1 hr at 37 degC by microbeta scintillation counting analysis
Homo sapiens [6] = species on record: Homo sapiens; experiment: Selectivity index, ratio of Ki for human 5-HT6 receptor expressed in HEK293 cell membranes to Ki for human 5-HT7b receptor expressed in HEK293 cell membranes; type: cell-based
Homo sapiens [7] = species on record: Homo sapiens; experiment: Selectivity index, ratio of Ki for human 5-HT1A receptor expressed in HEK293 cell membranes to Ki for human 5-HT7b receptor expressed in HEK293 cell membranes; type: cell-based

5-hydroxytryptamine receptor 7, sequence (P34969 whole entry): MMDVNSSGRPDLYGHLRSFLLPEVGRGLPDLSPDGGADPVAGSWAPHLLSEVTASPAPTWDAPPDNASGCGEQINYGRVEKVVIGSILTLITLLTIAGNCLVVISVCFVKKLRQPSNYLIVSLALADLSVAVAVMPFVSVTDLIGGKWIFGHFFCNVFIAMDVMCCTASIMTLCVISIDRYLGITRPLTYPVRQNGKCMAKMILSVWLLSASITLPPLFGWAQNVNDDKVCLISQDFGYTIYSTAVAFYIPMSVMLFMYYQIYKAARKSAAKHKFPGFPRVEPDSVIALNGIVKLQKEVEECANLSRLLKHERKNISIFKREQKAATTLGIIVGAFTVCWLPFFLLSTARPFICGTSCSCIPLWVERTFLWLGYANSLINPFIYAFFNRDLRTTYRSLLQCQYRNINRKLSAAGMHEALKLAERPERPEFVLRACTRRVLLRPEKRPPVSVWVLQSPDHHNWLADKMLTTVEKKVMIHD
5-hydroxytryptamine receptor 6, sequence (P50406 whole entry): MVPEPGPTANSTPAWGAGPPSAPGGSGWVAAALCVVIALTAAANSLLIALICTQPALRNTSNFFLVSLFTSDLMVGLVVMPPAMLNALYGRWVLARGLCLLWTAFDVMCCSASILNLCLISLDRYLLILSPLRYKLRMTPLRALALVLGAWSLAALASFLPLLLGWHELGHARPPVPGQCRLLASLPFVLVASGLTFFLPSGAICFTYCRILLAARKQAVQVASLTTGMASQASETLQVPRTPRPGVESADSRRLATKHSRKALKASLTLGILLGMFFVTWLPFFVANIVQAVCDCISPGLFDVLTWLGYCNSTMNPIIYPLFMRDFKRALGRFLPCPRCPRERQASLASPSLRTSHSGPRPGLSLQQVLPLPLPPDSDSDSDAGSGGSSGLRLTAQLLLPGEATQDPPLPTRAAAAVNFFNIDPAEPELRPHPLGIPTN
5-hydroxytryptamine receptor 2A, sequence (P28223 whole entry): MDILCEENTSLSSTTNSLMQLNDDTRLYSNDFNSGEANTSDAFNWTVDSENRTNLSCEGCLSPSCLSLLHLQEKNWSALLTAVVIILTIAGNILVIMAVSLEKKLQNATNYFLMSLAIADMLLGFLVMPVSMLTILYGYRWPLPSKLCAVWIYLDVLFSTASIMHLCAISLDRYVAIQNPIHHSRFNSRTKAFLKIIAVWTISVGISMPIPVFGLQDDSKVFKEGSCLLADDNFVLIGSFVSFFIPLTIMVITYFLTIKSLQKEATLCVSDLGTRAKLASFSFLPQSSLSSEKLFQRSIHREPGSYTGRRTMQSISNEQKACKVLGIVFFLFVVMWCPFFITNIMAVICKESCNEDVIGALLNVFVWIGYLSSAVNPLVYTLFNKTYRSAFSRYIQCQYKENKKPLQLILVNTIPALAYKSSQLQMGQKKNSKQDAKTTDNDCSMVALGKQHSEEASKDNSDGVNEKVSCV

Ki [1] [nM]	Ki [2] [nM]	Ki [4] [nM]	Ki [5] [nM]	SMILES	Ratio Ki (Homo sapiens [3])	Ratio Ki (Homo sapiens [6])	Ratio Ki (Homo sapiens [7])
52000	259	5280	275	O=C1Nc2ccccc2C12CCN(CCN1CCC(c3ccc(F)cc3)CC1)C2 (centres undefined)	0.9	19.2	189
2690	351	2000	55	O=C1Nc2ccccc2C12CCN(CCN1CCN(c3cccc(Cl)c3)CC1)C2 (centres undefined)	6.4	36.5	48.9
4050	270	1130	38	O=C1Nc2ccccc2C12CCN(CCN1CCN(c3ccc(Cl)c(Cl)c3)CC1)C2 (centres undefined)	7.1	29.8	107
1100	452	2840	245	O=C1Nc2ccccc2C12CCN(CCN1CCN(c3ccccc3Cl)CC1)C2 (centres undefined)	1.8	11.6	4.5
2890	715	5560	67	O=C1Nc2ccccc2C12CCN(CCCN1CCN(c3ccc(Cl)cc3)CC1)C2 (centres undefined)	10.7	83	43.1
14200	59	4740	21	O=C1Nc2ccccc2C12CCN(CCN1CCN(c3ccc(F)cc3)CC1)C2 (centres undefined)	2.8	226	674
14900	404	4580	284	O=C1Nc2ccccc2C12CCN(CCN1CCC(c3ccc(Cl)cc3)CC1)C2 (centres undefined)	1.4	16.1	52.5
13800	343	1690	121	O=C1Nc2ccccc2C12CCN(CCN1CCC(Oc3ccc(Cl)cc3)CC1)C2 (centres undefined)	2.8	14	114
6000	496	6560	100	O=C1Nc2ccccc2C12CCN(CCN1CCN(c3ccccc3)CC1)C2 (centres undefined)	5	65.6	60.1
48200	17300	7750	529	O=C(c1ccc(Cl)cc1)N1CCN(CCN2CCC3(C2)C(=O)Nc2ccccc23)CC1 (centres undefined)	32.8	14.6	91.2
3760	68	4740	29	O=C1Nc2ccccc2C12CCN(CCN1CCN(c3ccc(Cl)cc3)CC1)C2 (centres undefined)	2.3	163	130

SMILES	Ki [1] [nM]	Ki [2] [nM]	Ki [4] [nM]	Ki [5] [nM]	Ratio Ki (Homo sapiens [3])	Ratio Ki (Homo sapiens [6])	Ratio Ki (Homo sapiens [7])
O=C1Nc2ccccc2C12CCN(CCN1CC=C(c3ccc(F)cc3)CC1)C2 (centres undefined)	3950	75	6270	43	1.7	146	91.8
